Assay results: patent US11999727B2 (Tango Therapeutics, Inc., priority 2020, dated 2024)
Where two headings read alike, the source gives them in different places.

Tests used:
PRMT5 [1] = target: T1, PRMT5 (Homo sapiens, UniProt O14744); experiment: PRMT5 biochemical IC50 assay with MTA as cofactor; settings: PRMT5, MTA as cofactor; read-out: MTA IC50
T1 construct: purchased Viva (custom protein)

[2] = test system: HAP1 MTAP-deleted cell line; experiment: Viability assay, MTAP-deleted cell line; type: cell-based; settings: Homo sapiens
Excerpt: Table 1 additionally indicates IC50 values in a viability assay for the MTAP-deleted cell line (column 10), indicating the effect of treatment with compound on cell survival.

[3] = test system: HAP1 MTAP-deleted cell line; experiment: SDMA in-cell western assay, HAP1 MTAP-deleted; type: cell-based; settings: for MTAP intact/deleted ratio: IC50 ratio HAP1 MTAP-intact / HAP1 MTAP-deleted
In short: (§1)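 IC50 values come from SDMA signal quantified by in-cell western in two HAP1 lines, one with native MTAP levels and one lacking MTAP.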

[4] = test system: HAP1 MTAP-intact cell line; experiment: SDMA in-cell western assay, HAP1 MTAP-intact; type: cell-based
In short: as §1

PRMT5 [5] = target: T1, PRMT5; experiment: PRMT5 biochemical IC50 assay with SAM as cofactor; settings: PRMT5, SAM as cofactor; read-out: SAM IC50
PRMT5 [6] = target: T1, PRMT5; experiment: PRMT5 biochemical IC50 assay with no cofactor; settings: PRMT5, no cofactor; read-out: No Cofactor/rel IC50
Excerpt: Table 1 indicates IC50 values (μM) against PRMT5 for exemplary compounds in the presence of SAM as cofactor, with no cofactor, and with MTA as cofactor, respectively (columns 4-6). […] Ki values can be calculated from the IC50 values as described in the Examples section. As detailed in the Examples section, for the assay performed in the presence of SAM, IC50=Ki×1.5 (Ki=IC50/1.5).

[7] = HAP1, viability assay, MTAP-deleted cell line, read-out: HAP1 MTAP deleted viability
[8] = Homo sapiens, HAP1, SDMA in-cell western, HAP1 MTAP-deleted, read-out: HAP1 MTAP deleted IC50
[9] = Homo sapiens, HAP1, SDMA in-cell western, HAP1 MTAP-intact, read-out: MTAP HAP1 intact IC50

T1 sequence (O14744 whole entry): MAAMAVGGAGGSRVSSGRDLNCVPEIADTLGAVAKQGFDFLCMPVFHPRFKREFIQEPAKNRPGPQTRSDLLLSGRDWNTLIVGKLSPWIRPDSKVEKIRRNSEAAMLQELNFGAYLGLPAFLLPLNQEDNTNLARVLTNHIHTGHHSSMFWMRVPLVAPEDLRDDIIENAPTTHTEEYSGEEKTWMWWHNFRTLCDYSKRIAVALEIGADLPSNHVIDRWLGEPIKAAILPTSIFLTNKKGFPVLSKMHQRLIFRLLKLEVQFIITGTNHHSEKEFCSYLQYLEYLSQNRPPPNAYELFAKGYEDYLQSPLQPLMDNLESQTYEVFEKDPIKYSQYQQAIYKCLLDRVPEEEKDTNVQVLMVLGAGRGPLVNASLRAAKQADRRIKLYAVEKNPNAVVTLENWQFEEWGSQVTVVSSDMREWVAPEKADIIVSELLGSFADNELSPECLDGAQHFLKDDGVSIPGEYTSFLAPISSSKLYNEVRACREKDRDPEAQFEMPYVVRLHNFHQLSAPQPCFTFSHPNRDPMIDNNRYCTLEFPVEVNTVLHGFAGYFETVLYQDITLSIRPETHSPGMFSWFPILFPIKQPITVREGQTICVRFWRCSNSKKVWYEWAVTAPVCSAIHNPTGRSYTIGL
T1 sequence (Q9BQA1 whole entry partner): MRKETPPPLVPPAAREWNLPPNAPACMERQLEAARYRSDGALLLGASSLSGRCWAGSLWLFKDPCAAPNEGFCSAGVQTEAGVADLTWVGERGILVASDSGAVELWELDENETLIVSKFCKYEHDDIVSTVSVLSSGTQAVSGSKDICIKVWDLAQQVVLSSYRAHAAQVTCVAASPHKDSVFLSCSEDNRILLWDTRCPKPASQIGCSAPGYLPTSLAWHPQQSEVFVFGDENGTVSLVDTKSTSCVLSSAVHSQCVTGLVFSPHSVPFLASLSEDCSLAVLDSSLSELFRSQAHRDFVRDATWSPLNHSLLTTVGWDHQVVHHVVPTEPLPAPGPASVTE

| SMILES | IC50 (PRMT5 [1]) [nM] | IC50 (PRMT5 [5]) [nM] | IC50 (PRMT5 [6]) [nM] | IC50 [3, 8] [nM] | IC50 [4, 9] [nM] | IC50 ([3]; SDMA in-cell western, HAP1 MTAP-deleted, read-out: HAP1 MTAP deleted IC50) [nM] | IC50 ([4]; SDMA in-cell western, HAP1 MTAP-intact, read-out: MTAP HAP1 intact IC50) [nM] | IC50 ([2]; HAP1, read-out: HAP1 MTAP deleted viability) [µM] | IC50 ([3]; Homo sapiens, HAP1, read-out: HAP1 MTAP deleted IC50) [nM] | MTAP intact/deleted ratio ([3]; SDMA in-cell western) | IC50 ([4]; Homo sapiens, HAP1, read-out: MTAP HAP1 intact IC50) [nM] | IC50 [2, 7] [µM] |
| --- | --- | --- | --- | --- | --- | --- | --- | --- | --- | --- | --- | --- |
| COc1ncc(NC(=O)C(=O)N2C[C@H](C)CC[C@H]2c2ccccc2)cc1C(N)=O (single isomer, unassigned) [Compound 333] | < 50 | 50 to 500 | < 50 | – | – | – | – | < 1 | < 100 | A (an IC50 ratio greater than or equal to 10 fold) | > 1000 | – |
| Cc1cc([C@@H]2CC[C@@H](C)CN2C(=O)C(=O)Nc2cncc(C(N)=O)c2)cc(C)c1O (single isomer, unassigned) [Compound 335] | < 50 | 50 to 500 | 50 to 500 | < 100 | > 1000 | – | – | – | – | A (an IC50 ratio greater than or equal to 10 fold) | – | 1 to 10 |
| C[C@@H]1CC[C@@H](c2ccc3c(c2)C[C@H](C)O3)N(C(=O)C(=O)Nc2cncc(C(N)=O)c2)C1 (single isomer, unassigned) [Compound 345] | < 50 | 50 to 500 | 50 to 500 | 100 to 1000 | > 1000 | – | – | – | – | A (an IC50 ratio greater than or equal to 10 fold) | – | 1 to 10 |
| C[C@@H]1CC[C@@H](c2ccc(O)nc2)N(C(=O)C(=O)Nc2cncc(C(N)=O)c2)C1 (single isomer, unassigned) [Compound 351] | > 500 | > 500 | > 500 | > 1000 | > 1000 | – | – | – | – | C (an IC50 ratio of less than 3 fold) | – | > 10 |
| N#C[C@H]1CCN(C(=O)C(=O)Nc2cncc(C(N)=O)c2)[C@@H](c2ccccc2)C1 (single isomer, unassigned) [Compound 352] | < 50 | 50 to 500 | 50 to 500 | 100 to 1000 | > 1000 | – | – | – | – | A (an IC50 ratio greater than or equal to 10 fold) | – | > 10 |
| C[C@H]1CC[C@H](c2ccc(O)c(F)c2)N(C(=O)C(=O)Nc2cncc(C(N)=O)c2)C1 (single isomer, unassigned) [Compound 354] | < 50 | 50 to 500 | < 50 | < 100 | 100 to 1000 | – | – | – | – | A (an IC50 ratio greater than or equal to 10 fold) | – | < 1 |
| C[C@@H]1CC[C@@H](c2ccc(O)c(F)c2)N(C(=O)C(=O)Nc2cncc(C(N)=O)c2)C1 (single isomer, unassigned) [Compound 355] | > 500 | > 500 | > 500 | > 1000 | > 1000 | – | – | – | – | C (an IC50 ratio of less than 3 fold) | – | > 10 |
| CNc1cccc([C@H]2CCCCN2C(=O)C(=O)Nc2cnc(N)c(C)c2)c1 (single isomer, unassigned) [Compound 356] | < 50 | 50 to 500 | 50 to 500 | < 100 | > 1000 | – | – | – | – | A (an IC50 ratio greater than or equal to 10 fold) | – | 1 to 10 |
| Cc1c(NC(=O)C(=O)N2C[C@H](C)CC[C@H]2c2ccccc2)cnc(N)c1C (single isomer, unassigned) [Compound 367] | 50 to 500 | > 500 | > 500 | > 1000 | > 1000 | – | – | – | – | C (an IC50 ratio of less than 3 fold) | – | > 10 |
| C[C@H]1CC[C@H](c2cccc(N(C)C)c2)N(C(=O)C(=O)Nc2cncc(C(N)=O)c2)C1 (single isomer, unassigned) [Compound 374] | > 500 | > 500 | > 500 | > 1000 | > 1000 | – | – | – | – | C (an IC50 ratio of less than 3 fold) | – | > 10 |

More lines, main results first:

| IC50 (PRMT5 [1]) [nM] | IC50 (PRMT5 [5]) [nM] | IC50 (PRMT5 [6]) [nM] | IC50 [3, 8] [nM] | IC50 [4, 9] [nM] | IC50 ([3]; SDMA in-cell western, HAP1 MTAP-deleted, read-out: HAP1 MTAP deleted IC50) [nM] | IC50 ([4]; SDMA in-cell western, HAP1 MTAP-intact, read-out: MTAP HAP1 intact IC50) [nM] | SMILES | IC50 ([2]; HAP1, read-out: HAP1 MTAP deleted viability) [µM] | IC50 ([3]; Homo sapiens, HAP1, read-out: HAP1 MTAP deleted IC50) [nM] | MTAP intact/deleted ratio ([3]; SDMA in-cell western) | IC50 ([4]; Homo sapiens, HAP1, read-out: MTAP HAP1 intact IC50) [nM] | IC50 [2, 7] [µM] |
| --- | --- | --- | --- | --- | --- | --- | --- | --- | --- | --- | --- | --- |
| < 50 | 50 to 500 | 50 to 500 | < 100 | > 1000 | – | – | CNc1cccc([C@@H]2CCCCN2C(=O)C(=O)Nc2cncc(C(N)=O)c2)c1 (single isomer, unassigned) [Compound 334] | – | – | A (an IC50 ratio greater than or equal to 10 fold) | – | 1 to 10 |
| < 50 | 50 to 500 | 50 to 500 | 100 to 1000 | > 1000 | – | – | Cc1cc(NC(=O)C(=O)N2C[C@H](C)C[C@@H](C)[C@H]2c2ccccc2)cnc1N (single isomer, unassigned) [Compound 339] | – | – | A (an IC50 ratio greater than or equal to 10 fold) | – | > 10 |
| < 50 | 50 to 500 | 50 to 500 | 100 to 1000 | > 1000 | – | – | Cc1cc(NC(=O)C(=O)N2CCCC[C@H]2C2CCCC2)cnc1N (single isomer, unassigned) [Compound 340] | – | – | A (an IC50 ratio greater than or equal to 10 fold) | – | 1 to 10 |
| < 50 | 50 to 500 | 50 to 500 | 100 to 1000 | > 1000 | – | – | CC(=O)N1CCC(c2cccc([C@@H]3CC[C@@H](C)CN3C(=O)C(=O)Nc3cncc(C(N)=O)c3)c2)CC1 (single isomer, unassigned) [Compound 346] | – | – | A (an IC50 ratio greater than or equal to 10 fold) | – | 1 to 10 |
| < 50 | 50 to 500 | 50 to 500 | – | – | 100 to 1000 | > 1000 | COc1ncc(NC(=O)C(=O)N2CCCCC2C2CCCCC2)cc1C(N)=O (single isomer, unassigned) [Compound 347, 5-(2-(2-cyclohexylpiperidin-1-yl)-2-oxoacetamido)-2-methoxynicotinamide] | – | – | A (an IC50 ratio greater than or equal to 10 fold) | – | 1 to 10 |
| < 50 | 50 to 500 | 50 to 500 | < 100 | > 1000 | – | – | CNc1cccc([C@@H]2CC[C@@H](C)CN2C(=O)C(=O)Nc2cncc(C(N)=O)c2)c1 (single isomer, unassigned) [Compound 348] | – | – | A (an IC50 ratio greater than or equal to 10 fold) | – | 1 to 10 |
| < 50 | 50 to 500 | 50 to 500 | > 1000 | > 1000 | – | – | C[C@H]1CC[C@H](c2ccc(O)nc2)N(C(=O)C(=O)Nc2cncc(C(N)=O)c2)C1 (single isomer, unassigned) [Compound 350] | – | – | C (an IC50 ratio of less than 3 fold) | – | > 10 |
| > 500 | > 500 | > 500 | > 1000 | > 1000 | – | – | N#C[C@@H]1CCN(C(=O)C(=O)Nc2cncc(C(N)=O)c2)[C@H](c2ccccc2)C1 (single isomer, unassigned) [Compound 353] | – | – | C (an IC50 ratio of less than 3 fold) | – | > 10 |
| 50 to 500 | 50 to 500 | > 500 | 100 to 1000 | > 1000 | – | – | CNc1cccc([C@@H]2CCCCN2C(=O)C(=O)Nc2cnc(N)c(C)c2)c1 (single isomer, unassigned) [Compound 357] | – | – | A (an IC50 ratio greater than or equal to 10 fold) | – | > 10 |
| < 50 | 50 to 500 | 50 to 500 | < 100 | > 1000 | – | – | CN(C)c1cccc([C@@H]2CCCCN2C(=O)C(=O)Nc2cncc(C(N)=O)c2)c1 (single isomer, unassigned) [Compound 365] | – | – | A (an IC50 ratio greater than or equal to 10 fold) | – | 1 to 10 |
| 50 to 500 | > 500 | > 500 | > 1000 | > 1000 | – | – | CN(C)c1cccc([C@H]2CCCCN2C(=O)C(=O)Nc2cncc(C(N)=O)c2)c1 (single isomer, unassigned) [Compound 366] | – | – | C (an IC50 ratio of less than 3 fold) | – | > 10 |
| < 50 | 50 to 500 | 50 to 500 | < 100 | > 1000 | – | – | Cc1c(NC(=O)C(=O)N2C[C@@H](C)CC[C@@H]2c2ccccc2)cnc(N)c1C (single isomer, unassigned) [Compound 368] | – | – | A (an IC50 ratio greater than or equal to 10 fold) | – | 1 to 10 |
| < 50 | 50 to 500 | 50 to 500 | 100 to 1000 | > 1000 | – | – | COc1ncc(NC(=O)C(=O)N2C[C@@H](C)CC[C@@H]2C2CCCCC2)cc1C(N)=O (single isomer, unassigned) [Compound 369] | – | – | A (an IC50 ratio greater than or equal to 10 fold) | – | 1 to 10 |
